Like-named read-outs stand apart in the source and are kept apart here.

One experiment concerns the target T1, 5-lipoxygenase (Rattus norvegicus, UniProt P12527).
T1 construct: host or cells: RBL-1 (rat basophilic leukemia)
T1 sequence (P12527 1-673): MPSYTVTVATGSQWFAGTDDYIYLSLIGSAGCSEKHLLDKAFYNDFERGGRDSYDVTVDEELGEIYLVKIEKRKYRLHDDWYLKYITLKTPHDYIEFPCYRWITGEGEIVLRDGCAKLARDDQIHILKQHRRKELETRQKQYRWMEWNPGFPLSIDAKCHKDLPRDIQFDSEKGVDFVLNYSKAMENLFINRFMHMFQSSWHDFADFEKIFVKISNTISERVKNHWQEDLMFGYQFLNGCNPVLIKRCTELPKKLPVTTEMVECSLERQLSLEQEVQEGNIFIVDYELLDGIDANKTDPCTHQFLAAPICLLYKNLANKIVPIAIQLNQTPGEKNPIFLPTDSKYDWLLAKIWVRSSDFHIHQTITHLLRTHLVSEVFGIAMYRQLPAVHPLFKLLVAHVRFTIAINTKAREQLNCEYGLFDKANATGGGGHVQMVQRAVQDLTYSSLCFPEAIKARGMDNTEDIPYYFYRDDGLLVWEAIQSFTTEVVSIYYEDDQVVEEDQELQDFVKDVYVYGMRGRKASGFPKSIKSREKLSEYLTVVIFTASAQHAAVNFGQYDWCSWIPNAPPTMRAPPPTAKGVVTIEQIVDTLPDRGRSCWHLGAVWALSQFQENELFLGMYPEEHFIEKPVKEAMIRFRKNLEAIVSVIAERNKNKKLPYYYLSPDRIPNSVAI
In words: ARBL whole cell 5-lipoxygenase assay (RBL-1 cells, inhibition of LTB4 formation). The class given is cell-based. Conditions: calcium ionophore A23187 (5 μM). The procedure: (§1) ARBL/ARBC WHOLE CELL 5-LIPOXYGENASE AND CYCLOOXYGENASE ASSAYS
(§2) The rat basophilic leukemia cell line (RBL-1) was obtained from the American Type Culture Collection (Rockville, Md.).
(§3) Radioimmunoassay (RIA) kits of LTB4 and PGF2α were obtained from Amersham (Arlington Heights, Ill.) and Seragen (Boston, Mass.), respectively.
(§4) All tissue culture media were obtinaed from GIBCO (Grand Island, N.Y.).
(§5) RBL-1 cells are grown in suspension culture in Eagle's minimum essential medium supplemented with 12% fetal bovine serum at 37° C. in an incubator supplied with air-5% carbon dioxide. Cells are harvested by centrifugation. They are washed with cold phosphate-buffered saline, pH 7.4 (PBS; NaCl, 7.1 g; Na2 HPO4, 1.15 g; KH2 PO4, 0.2 g; and KCl, 0.2 g/L). Cells are finally suspended in PBS containing 1.0 mM calcium at a density of 2×10^6 cells/mL. Cells are incubated […] test agent (in DMSO) (1% DMSO is without effect on arachidonic acid metabolism) for 10 minutes at room temperature. Calcium ionophore A23187 (5 μM) is added and cells are incubated for 7 minutes at 37° C. The reaction is stopped by chilling the tubes on ice for 10 minutes. Cells are separated by centrifugation and the supernatant is stored at -20° C. Aliquots (100 μL) are anlyzed for LTB4 and PGF2α using radioimmunoassay kits as provided by the supplier.
(§6) Table 1 contains biochemical data for compounds of formula I obtained from this whole cell assay as amount of inhibition at 10 μM or IC50 s which are calculated as the concentration of a test compound in micromoles (μM) causing 50% inhibition of LTB4 or PGF2α formation.

The target in a further experiment is T2, cyclooxygenase (Rattus norvegicus, UniProt Q63921).
T2 construct: host or cells: RBL-1 (rat basophilic leukemia)
T2 sequence (Q63921 27-602): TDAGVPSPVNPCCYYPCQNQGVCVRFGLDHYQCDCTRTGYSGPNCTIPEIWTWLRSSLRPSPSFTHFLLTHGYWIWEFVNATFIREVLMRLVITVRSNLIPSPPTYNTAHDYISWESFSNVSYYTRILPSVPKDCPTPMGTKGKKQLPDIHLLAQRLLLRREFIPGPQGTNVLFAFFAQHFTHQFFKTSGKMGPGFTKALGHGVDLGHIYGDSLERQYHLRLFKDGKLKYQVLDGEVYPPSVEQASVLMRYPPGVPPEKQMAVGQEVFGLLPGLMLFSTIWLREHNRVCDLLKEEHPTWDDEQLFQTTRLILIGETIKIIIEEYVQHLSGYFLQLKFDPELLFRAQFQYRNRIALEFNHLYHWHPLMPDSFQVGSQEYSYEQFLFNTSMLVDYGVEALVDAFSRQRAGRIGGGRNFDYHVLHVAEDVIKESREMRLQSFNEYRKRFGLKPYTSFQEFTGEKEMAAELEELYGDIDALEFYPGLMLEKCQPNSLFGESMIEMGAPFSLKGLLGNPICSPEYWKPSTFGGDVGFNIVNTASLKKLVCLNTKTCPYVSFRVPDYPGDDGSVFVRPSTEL
In words: ARBC whole cell cyclooxygenase assay (RBL-1 cells, inhibition of PGF2α formation). The class given is cell-based. Conditions: calcium ionophore A23187 (5 μM). The procedure: as §1, §2, §3, §4, §5, §6

Experiment [1] relates to Mycobacterium-Induced Rat Footpad Edema. In words: Mycobacterium-Induced Rat Footpad Edema Assay (MFE). Conditions: at 10 m/k, dosed one hour before Mycobacterium and Days 1 and 2, 72 hours. The class given is in vivo. The procedure: Mycobacterium - Induced Rat Footpad Edema Assay (MFE): Protocol Mycobacterium butyricum (5 mg/ml) is suspended in paraffin oil by sonication for ten minutes in an ice bath. Footpad edema is induced on Day 0 by injecting 0.1 ml of the Mycobacterium mixture into the left hindpaw of lightly anesthetized rats. Swelling in the injected hindpaw is determined by mercury plethysmography 72 hours after injection. Groups of rats are treated with test compounds (suspended in 0.5% hydroxypropyl methylcellulose with 0.2% Tween-80) or vehicle one hour before Mycobacterium injection and on Days 1 and 2. Inhibition of swelling is determined by comparing the change in hindpaw volume in compound- and vehicle-treated rats. An ID40 (the dose at which swelling is inhibited by 40%) is calculated by probit analysis. Table 1 also contains biochemical data for compounds of formula I obtained from the CFE and MFE assays.

Experiment [2] relates to Carrageenan-Induced Rat Foot Paw Edema. In words: Carrageenan-Induced Rat Foot Paw Edema-2 (CFE-2) Assay. Type of experiment: in vivo. Particulars: at 10 m/k, dosed one hour before carrageenan, edema at five hours. The procedure: Carrageenan-Induced Rat Foot Paw Edema-2 (CFE-2) Assay: Protocol
Carrageenan solution (1% w/v) is prepared by dissolving 100 mg carrageenan (Marine Colloidal Div., Springfield N.J.) in 10 ml of sterile saline (0.9%) solution (travenol). The solution is vortexed for 30 to 45 minutes. Animals are dosed with compound one hour before carrageenan challenge. Foot paw edema is induced by injecting 0.10 ml of the 1% carrageenan subcutaneously into the plantar portion of the right hind paw of each rat under light anesthesia. Initial foot paw volume is measured immediately following carrageenan challenge using mercury plethysmography (Buxco Electronics). Edema is measured five hours after carrageenan. The difference between the five-hour and the initial paw volume is expressed as delta edema. The delta edema for each test group of animals is used to calculate the percent inhibition of edema achieved by the compound at the test dose compared with the vehicle control group. The ID40 (the dose at which swelling is inhibited by 40%) is calculated by probit analysis for the dose at which 40 percent inhibition occurs.
Table 1 also contains biochemical data for compounds of formula I obtained from the CFE and MFE assays.
(In the carrageenan paw model, swelling and tenderness develop within hours.)

[3] abbreviates: read-out: ARBC, inhibition of PGF2α (class symbol N).
[4] abbreviates: read-out: ARBC, inhibition of PGF2α.

As a reminder, the IC50 is the concentration at which inhibition is half-maximal. `CC(C)(C)c1cc(/C=C2\C(=O)Nc3ccccc32)cc(C(C)(C)C)c1O` [Example 1, 3-[[3,5-bis(1,1-dimethylethyl)-4-hydroxyphenyl]methylene]1,3,-dihydro-2H-indole-2-one, (Z)-]: the IC50 came out at 930 nM at 5-lipoxygenase and 1500 nM on cyclooxygenase. The “MFE, inhibition of swelling” value in experiment [1] was 42%.

By inhibition is commonly meant the drop in the measured response relative to a control, in per cent. As for `Cc1ccc2c(c1)/C(=C/c1cc(C(C)(C)C)c(O)c(C(C)(C)C)c1)C(=O)N2` [Example 2, 3-[[3,5-Bis(1,1-dimethylethyl)-4-hydroxyphenyl]-methylene]-1,3-dihydro-5-methyl-2H-indole-2-one, (Z)], the inhibition at 10 µM at 5-lipoxygenase is 100%; on cyclooxygenase (setting [3]), less than 40%.

On to `CC(C)(C)c1cc(/C=C2\C(=O)N(C(N)=O)c3ccccc32)cc(C(C)(C)C)c1O` [Example 3], for which the inhibition at 10 µM was determined as 100% at 5-lipoxygenase and 32% at cyclooxygenase (setting [4]).

Turning to `CN1C(=O)/C(=C\c2cc(C(C)(C)C)c(O)c(C(C)(C)C)c2)c2ccccc21` [Example 4], the results for the inhibition at 10 µM at 5-lipoxygenase and at cyclooxygenase (setting [4]) were 100% and 30%, respectively.

Consider `COc1cccc2c1NC(=O)/C2=C\c1cc(C(C)(C)C)c(O)c(C(C)(C)C)c1` [Example 5, 3-[[3,5-bis(1,1-dimethylethyl)-4-hydroxyphenyl]-methylene]-1,3-dihydro-7-methoxy-2H-indol-2-one, (Z)-], for which the IC50 at 5-lipoxygenase was 430 nM; on cyclooxygenase, 6070 nM. In addition, in experiment [2], the “CFE, inhibition of edema” value was found to be 43%. The “MFE, inhibition of swelling” value in experiment [1] was found to be 33%.

With `CCOC(=O)c1ccc2c(c1)/C(=C/c1cc(C(C)(C)C)c(O)c(C(C)(C)C)c1)C(=O)N2` [Example 6, 3-[[3,5-bis(1,1-dimethylethyl)-4-hydroxyphenyl]-methylene]-2,3-dihydro-2-oxo-1H-indole-5-carboxylic acid, ethyl ester (Z)-], the inhibition at 10 µM at 5-lipoxygenase is 100%; at cyclooxygenase (setting [3]), less than 40%.

For the compound `Cc1cccc2c1NC(=O)/C2=C\c1cc(C(C)(C)C)c(O)c(C(C)(C)C)c1` [Example 7], the results for the inhibition at 10 µM on 5-lipoxygenase and on cyclooxygenase (setting [3]) were 100% and less than 40%, respectively.

Take `COc1ccc2c(c1)/C(=C/c1cc(C(C)(C)C)c(O)c(C(C)(C)C)c1)C(=O)N2C` [Example 8, 3-[[3,5-bis(1,1-dimethylethyl)-4-hydroxyphenyl]methylene]-1,3-dihydro-5-methoxy-1-methyl-2H-indole-2-one, (Z)-]: the values for the inhibition at 10 µM at 5-lipoxygenase and on cyclooxygenase (setting [3]) were 100% and less than 40%, respectively.

For `CC(C)(C)c1cc(/C=C2\C(=O)Nc3cccc(Cl)c32)cc(C(C)(C)C)c1O` [Example 9, 3-[[3,5-bis(1,1-dimethylethyl)-4-hydroxyphenyl]methylene]-4-chloro-1,3-dihydro-2H-indole-2-one, (Z)-], the inhibition at 10 µM at 5-lipoxygenase is 48%; at cyclooxygenase (setting [3]), less than 40%.

For the compound `Cc1cccc2c1/C(=C/c1cc(C(C)(C)C)c(O)c(C(C)(C)C)c1)C(=O)N2` [Example 10, 3-[[3,5-bis(1,1-dimethylethyl)-4-hydroxyphenyl]methylene]-1,3-dihydro-4-methyl-2H-indole-2-one, (Z)-], the inhibition at 10 µM on 5-lipoxygenase is 100%; on cyclooxygenase (setting [3]), less than 40%.

Regarding `CC(C)(C)c1cc(/C=C2\C(=O)Nc3ccc(C(=O)O)cc32)cc(C(C)(C)C)c1O` [Example 12, 3-[[3,5-bis(1,1-dimethylethyl)-4-hydroxyphehyl]methylene]-2,3-dihydro-2-oxo-1H-indole-5-carboxylic acid, (Z)-], the results for the inhibition at 10 µM on 5-lipoxygenase and at cyclooxygenase (setting [3]) were 100% and less than 40%, respectively.

The values above are taken from patent US5124347A, “3-5-ditertiarybutylphenyl-4-hydroxymethylidene derivatives of 1,3-dihydro-2H-indole-2-ones as antiinflammatory agents” (Warner-Lambert Co., priority 1991, dated 1992).
